# According to US20230391739A1, “ARYL DERIVATIVES FOR TREATING TRPM3 MEDIATED DISORDERS” (Katholieke Universiteit Leuven, priority 2020, published 2023):
# Molecular target: T1, mouse TRPM3α2 (mTRPM3) ion channel (Mus musculus, UniProt J9SQF3)
# T1 construct: expressed in transfected cells; host or cells: flip-in HEK293
# Test: TRPM3 ion channel driven Ca2+ uptake, Fluo-4 AM assay, PS-stimulated (mTRPM3)
# Type: cell-based
# Settings: TRPM3 overexpressing flip-in HEK293 cells stimulated with Pregnenolone sulfate (PS) 50 μM, activity ranges A, B, C
# Procedure: Monitoring the TRPM3 Ion Channel Driven Ca^2+ Uptake.
# In order to monitor the inhibition of the mouse TRPM3α2 (mTRPM3) ion channel by the compounds of the invention, a cellular system making use of an mTRPM3alpha2 or hTRPM3 overexpressing cell line (flip-in HEK293) was used. The TRPM3 channel was stimulated/opened with Pregnenolone sulfate (PS) (50 μM) which results in Ca^2+ influx.
# For mTRPM3, the intracellular Ca^2+ was measured with a Calcium responsive dye, Fluor-4 AM ester (Invitrogen). Cells were cultured until a confluence of 80-90%, washed with Versene (Invitrogen) and detached from the surface by a short incubation with 0.05% Trypsin (Invitrogen). The trypsination process was stopped by the addition of complete cell culture medium (DMEM, glutamax, 10% FCS, NEAA, Pen-Strep). Cells were collected and resuspended in Krebs buffer without Calcium at RT.
# Prior the cell seeding (±2000 cells/well into a black, 384 well plate (Greiner)) the diluted compound was added in the assay plate, together with the PS dissolved in Krebs buffer containing Calcium. […] Directly after cell addition the plates were read on an Envision fluorescence reader (Perkin Elmer) by an Excitation of 485 nm and emission at 535 nm.
# Channel inhibition was calculated compared to a non-PS stimulated control versus a condition stimulated with PS (50 μM) with vehicle. The ability of the compounds of the invention to inhibit this activity was determined as: Percentage inhibition=[1−((RFU determined for sample with test compound present−RFU determined for sample with positive control inhibitor) divided by (RFU determined in the presence of vehicle−RFU determined for sample with positive control inhibitor))]*100.
# The activities of the Example compounds tested are depicted in the table below.
# T1 sequence (J9SQF3 1-1709 isoform J9SQF3-12): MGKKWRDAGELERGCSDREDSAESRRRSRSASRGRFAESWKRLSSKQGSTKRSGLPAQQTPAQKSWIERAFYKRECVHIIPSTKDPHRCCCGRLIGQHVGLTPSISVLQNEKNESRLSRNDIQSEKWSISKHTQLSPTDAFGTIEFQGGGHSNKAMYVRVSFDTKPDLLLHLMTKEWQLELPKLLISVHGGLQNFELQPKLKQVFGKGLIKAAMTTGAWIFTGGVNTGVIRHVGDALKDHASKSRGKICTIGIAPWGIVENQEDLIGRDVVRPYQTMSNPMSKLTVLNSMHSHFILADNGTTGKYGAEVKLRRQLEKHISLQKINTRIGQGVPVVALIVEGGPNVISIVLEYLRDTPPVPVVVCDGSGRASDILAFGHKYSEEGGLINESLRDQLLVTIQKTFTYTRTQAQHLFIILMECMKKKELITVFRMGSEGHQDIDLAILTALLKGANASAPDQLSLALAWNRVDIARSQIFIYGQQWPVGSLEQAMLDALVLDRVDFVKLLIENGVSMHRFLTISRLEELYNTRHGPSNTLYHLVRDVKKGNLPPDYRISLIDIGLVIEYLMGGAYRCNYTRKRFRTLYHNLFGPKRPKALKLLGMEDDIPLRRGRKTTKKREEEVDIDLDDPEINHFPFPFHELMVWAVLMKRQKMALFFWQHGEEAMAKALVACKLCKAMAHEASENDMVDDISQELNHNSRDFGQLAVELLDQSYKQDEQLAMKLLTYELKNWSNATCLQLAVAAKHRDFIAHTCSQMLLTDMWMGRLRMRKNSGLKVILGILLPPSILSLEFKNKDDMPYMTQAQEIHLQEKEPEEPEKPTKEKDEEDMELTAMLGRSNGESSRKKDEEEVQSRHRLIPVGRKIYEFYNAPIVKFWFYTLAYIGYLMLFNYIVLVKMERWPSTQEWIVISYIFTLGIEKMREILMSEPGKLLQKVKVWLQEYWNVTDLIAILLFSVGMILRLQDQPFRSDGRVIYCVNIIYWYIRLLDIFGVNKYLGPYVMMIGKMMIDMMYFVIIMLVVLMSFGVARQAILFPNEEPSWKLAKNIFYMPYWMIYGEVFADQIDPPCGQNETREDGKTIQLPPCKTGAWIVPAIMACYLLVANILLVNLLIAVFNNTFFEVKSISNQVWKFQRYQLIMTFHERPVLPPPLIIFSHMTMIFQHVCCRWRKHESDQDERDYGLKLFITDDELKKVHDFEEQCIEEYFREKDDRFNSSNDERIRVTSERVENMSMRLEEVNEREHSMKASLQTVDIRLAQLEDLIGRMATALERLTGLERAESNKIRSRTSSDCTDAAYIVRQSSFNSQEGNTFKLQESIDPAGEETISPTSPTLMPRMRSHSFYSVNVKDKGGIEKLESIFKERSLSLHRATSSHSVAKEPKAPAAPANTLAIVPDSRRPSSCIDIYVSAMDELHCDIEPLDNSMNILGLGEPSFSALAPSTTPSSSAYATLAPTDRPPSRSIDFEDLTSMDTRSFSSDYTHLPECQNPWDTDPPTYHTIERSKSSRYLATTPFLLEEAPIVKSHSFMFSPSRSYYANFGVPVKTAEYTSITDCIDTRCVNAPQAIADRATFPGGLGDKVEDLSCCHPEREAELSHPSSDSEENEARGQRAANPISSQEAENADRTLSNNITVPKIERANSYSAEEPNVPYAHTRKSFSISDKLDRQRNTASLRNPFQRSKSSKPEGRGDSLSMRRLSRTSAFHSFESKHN
row,IC50,SMILES
1,1000 to 20000 nM,"Cc1oc2ccc(OCc3ccccc3)cc2c1C(=O)NCc1ccncc1 [Cpd 101, 5-(benzyloxy)-2-methyl-N-(pyridin-4-ylmethyl)benzofuran-3-carboxamide]"
2,< 1000 nM,"Cc1oc2ccc(OCc3ccccc3)cc2c1C(=O)Nc1cnccn1 [Cpd 061, 5-(benzyloxy)-2-methyl-N-(pyrazin-2-yl)benzofuran-3-carboxamide]"
3,< 1000 nM,"Cc1ccc(COc2ccc3oc(C)c(C(=O)N[C@@H](CO)C(N)=O)c3c2)c(F)c1 [Cpd 342, (S)—N-(1-amino-3-hydroxy-1-oxopropan-2-yl)-5-((2-fluoro-4-methylbenzyl)oxy)-2-methylbenzofuran-3-carboxamide]"
4,< 1000 nM,"Cc1oc2ccc(OCc3ccccc3F)cc2c1C(=O)NC1(CO)COC1 [Cpd 310, 5-((2-fluorobenzyl)oxy)-N-(3-(hydroxymethyl)oxetan-3-yl)-2-methylbenzofuran-3-carboxamide]"
5,< 1000 nM,"Cc1oc2ccc(OCc3ccccc3F)cc2c1C(=O)NC(CO)C(N)=O (single isomer, unassigned) [Cpd 314-En 1]"
6,< 1000 nM,"Cc1oc2ccc(OCc3cccc(F)c3F)cc2c1C(=O)NC1(CO)CCOCC1 [Cpd 217, 5-((2,3-difluorobenzyl)oxy)-N-(4-(hydroxymethyl)tetrahydro-2H-pyran-4-yl)-2-methylbenzo-furan-3-carboxamide]"
7,> 20000 nM,"Cc1oc2ccc(OCc3ccccc3)cc2c1C(=O)NS(=O)(=O)C(F)(F)F [Cpd 195, 5-(benzyloxy)-2-methyl-N-((trifluoromethyl)sulfonyl)benzofuran-3-carboxamide]"
8,< 1000 nM,"Cc1oc2ccc(OCc3ccccc3)cc2c1C(=O)NC1(CN)CCC1 [Cpd 082, N-(1-(aminomethyl)cyclobutyl)-5-(benzyloxy)-2-methylbenzofuran-3-carboxamide]"
9,1000 to 20000 nM,"Cc1oc2ccc(OCc3ccccc3)cc2c1C(=O)NCCc1ccncc1 [Cpd 139, 5-(benzyloxy)-2-methyl-N-(2-(pyridin-4-yl)ethyl)benzofuran-3-carboxamide]"
10,1000 to 20000 nM,"Cc1oc2ccc(OCc3cccc(F)c3)cc2c1C(=O)NC1CCN(C)CC1 [Cpd 168, 5-((3-fluorobenzyl)oxy)-2-methyl-N-(1-methylpiperidin-4-yl)benzofuran-3-carboxamide]"
11,< 1000 nM,"Cc1oc2ccc(OCc3ccccc3)cc2c1C(=O)NC1CCCNCC1 (centres unmarked) [Cpd 119, N-(azepan-4-yl)-5-(benzyloxy)-2-methylbenzofuran-3-carboxamide]"
12,< 1000 nM,"Cc1oc2ccc(OCc3ccccc3)cc2c1C(N)=O [Cpd 035, 5-(benzyloxy)-2-methylbenzofuran-3-carboxamide]"
13,1000 to 20000 nM,"Cc1oc2ccc(OCc3ccccc3)cc2c1C(=O)N1CCC(C)CC1 [Cpd 067, (5-(benzyloxy)-2-methylbenzofuran-3-yl)(4-methylpiperidin-1-yl)methanone]"
14,1000 to 20000 nM,"Cc1oc2ccc(OCc3ccc(C(F)(F)F)cc3)cc2c1C(=O)N[C@H]1CCNC1 [Cpd 202, (S)-2-methyl-N-(pyrrolidin-3-yl)-5-((4-(trifluoromethyl)benzyl)oxy)benzofuran-3-carboxamide]"
15,1000 to 20000 nM,"CCCNC(=O)c1c(C)oc2ccc(OCc3ccccc3)cc12 [Cpd 040, 5-(benzyloxy)-2-methyl-N-propylbenzofuran-3-carboxamide]"
16,1000 to 20000 nM,"Cc1oc2ccc(OCc3ccc(C(F)(F)F)cc3)cc2c1C(=O)NC1CCN(C)CC1 [Cpd 234, 2-methyl-N-(1-methylpiperidin-4-yl)-5-((4-(trifluoromethyl)benzyl)oxy)benzofuran-3-carboxamide]"
17,< 1000 nM,"Cc1oc2ccc(OCc3ccccc3F)cc2c1C(=O)NC1COCC1(F)F (single isomer, unassigned) [Cpd 331-En 2]"
18,< 1000 nM,"Cc1ccc(COc2ccc3oc(C)c(C(=O)N[C@H]4CCNC4)c3c2)cc1 [Cpd 085, (S)-2-methyl-5-((4-methylbenzyl)oxy)-N-(pyrrolidin-3-yl)benzofuran-3-carboxamide]"

row,IC50,SMILES
1,> 20000 nM,"Cc1oc2ccc(OCc3ccccc3)cc2c1C(=O)N1CCC(C(=O)OC(C)(C)C)CC1 [Cpd 237, tert-butyl 1-(5-(benzyloxy)-2-methylbenzofuran-3-carbonyl)piperidine-4-carboxylate]"
2,1000 to 20000 nM,"CNC(=O)[C@@H]1C[C@@H](NC(=O)c2c(C)oc3ccc(OCc4ccccc4)cc23)CN1 [Cpd 188, (2S,4R)-4-(5-(benzyloxy)-2-methylbenzofuran-3-carboxamido)-N-methylpyrrolidine-2-carboxamide]"
3,1000 to 20000 nM,"Cc1oc2ccc(OCc3ccccc3S(C)(=O)=O)cc2c1C(=O)NC1CCNCC1(F)F (single isomer, unassigned) [Cpd 333-En 1, N-(3,3-difluoropiperidin-4-yl)-2-methyl-5-((2-(methylsulfonyl)benzyl)oxy)benzofuran-3-carboxamide]"
4,1000 to 20000 nM,"Cc1oc2c(Cl)cc(OCc3ccccc3)cc2c1C(=O)NC1CNCC1(F)F (single isomer, unassigned) [Cpd 304-En 1, 5-(benzyloxy)-7-chloro-N-(4,4-difluoropyrrolidin-3-yl)-2-methylbenzofuran-3-carboxamide]"
5,< 1000 nM,"Cc1oc2ccc(OCc3ccccc3F)cc2c1C(=O)NC(C)CO (single isomer, unassigned) [Cpd 328-En 2]"
6,> 20000 nM,"Cc1oc2c(C)cc(OCc3ccccc3)cc2c1C(=O)NC1CNCC1(F)F (single isomer, unassigned) [Cpd 307-En 2, 5-(benzyloxy)-N-(4,4-difluoropyrrolidin-3-yl)-2,7-dimethylbenzofuran-3-carboxamide]"
7,< 1000 nM,"Cc1oc2ccc(OCc3ccccc3F)cc2c1C(=O)NC1(C(N)=O)CCC1 [Cpd 322, N-(1-carbamoylcyclobutyl)-5-((2-fluorobenzyl)oxy)-2-methylbenzofuran-3-carboxamide]"
8,< 1000 nM,"Cc1oc2ccc(OCc3ccc(F)cc3F)cc2c1C(=O)N[C@@H](CO)C(N)=O [Cpd 340, (S)—N-(1-amino-3-hydroxy-1-oxopropan-2-yl)-5-((2,4-difluorobenzyl)oxy)-2-methylbenzofuran-3-carboxamide]"
9,< 1000 nM,"Cc1oc2ccc(OCc3ccccc3)cc2c1C(=O)NC1CCN(c2ncccn2)CC1 [Cpd 230, 5-(benzyloxy)-2-methyl-N-(1-(pyrimidin-2-yl)piperidin-4-yl)benzofuran-3-carboxamide]"
10,< 1000 nM,"Cc1oc2ccc(OCc3ccccc3)cc2c1C(=O)NC1CCS(=O)(=O)CC1 [Cpd 198, 5-(benzyloxy)-N-(1,1-dioxidotetrahydro-2H-thiopyran-4-yl)-2-methylbenzofuran-3-carboxamide]"
11,> 20000 nM,"Cc1cc(C)c(CNC(=O)c2c(C)oc3ccc(OCc4ccccc4)cc23)c(=O)[nH]1 [Cpd 200, 5-(benzyloxy)-N-((4,6-dimethyl-2-oxo-1,2-dihydropyridin-3-yl)methyl)-2-methylbenzofuran-3-carboxamide]"
12,< 1000 nM,"Cc1oc2ccc(OCc3ccccc3)cc2c1C(=O)N[C@H]1CC[C@@H](N)CC1 [Cpd 116, N-(cis-4-aminocyclohexyl)-5-(benzyloxy)-2-methylbenzofuran-3-carboxamide]"
13,1000 to 20000 nM,"Cc1oc2ccc(OCc3ccccc3C#N)cc2c1C(=O)O [Cpd 010, 5-((2-cyanobenzyl)oxy)-2-methylbenzofuran-3-carboxylic acid]"
14,> 20000 nM,"Cc1oc2ccc(OCc3ccccc3)cc2c1C(=O)NCC1CCN(C(=O)OC(C)(C)C)CC1 [Cpd 253, tert-butyl 4-((5-(benzyloxy)-2-methylbenzofuran-3-carboxamido)methyl)piperidine-1-carboxylate]"
15,< 1000 nM,"Cc1oc2ccc(OCc3ccccc3)cc2c1C(=O)NC1CCN2CCCC12 (centres unmarked) [Cpd 144, 5-(benzyloxy)-N-(hexahydro-1H-pyrrolizin-1-yl)-2-methylbenzofuran-3-carboxamide]"
16,> 20000 nM,"Cc1oc2ccc(OC(C)c3ccccc3C(F)(F)F)cc2c1C(=O)N[C@H]1CCN(C(=O)OC(C)(C)C)C1 (mixture of isomers) [Cpd 267, rac-tert-butyl (3R)-3-(2-methyl-5-(1-(2-(trifluoromethyl)phenyl)ethoxy)benzofuran-3-carboxamido)pyrrolidine-1-carboxylate]"
17,1000 to 20000 nM,"COC1CCC(NC(=O)c2c(C)oc3ccc(OCc4ccccc4)cc23)CC1 (centres unmarked) [Cpd 159, 5-(benzyloxy)-N-(4-methoxycyclohexyl)-2-methylbenzofuran-3-carboxamide]"
18,< 1000 nM,"Cc1oc2ccc(OCc3ccccc3)cc2c1C(=O)NC1CCN(C(=O)OC(C)(C)C)CC1(F)F (centres unmarked) [Cpd 263, tert-butyl 4-(5-(benzyloxy)-2-methylbenzofuran-3-carboxamido)-3,3-difluoropiperidine-1-carboxylate]"

row,SMILES,IC50
1,"Cc1oc2ccc(OCc3ccccc3)cc2c1C(=O)NC1CC2CCC(C1)N2C (centres unmarked) [Cpd 181, 5-(benzyloxy)-2-methyl-N-(8-methyl-8-azabicyclo[3.2.1]octan-3-yl)benzofuran-3-carboxamide]",< 1000 nM
2,"Cc1oc2ccc(OCc3ccccc3)cc2c1C(=O)NC1CN2CCC1CC2 (centres unmarked) [Cpd 142, 5-(benzyloxy)-2-methyl-N-(quinuclidin-3-yl)benzofuran-3-carboxamide]",< 1000 nM
